Like-named read-outs stand apart in the source and are kept apart here.
Experiments:
A549 cells = assay: MTT anti-proliferative assay on A549 cells; type: cell-based, human; settings: mean ± SD, three experiments
Method: (§1) The anti-proliferative activity of compounds was determined by MTT (3-[4,5-dimethylthiazole-2-yl]-2,5-diphenyltetrazolium bromide) assay on MCF-7 and A549 cell lines, respectively. Cells were purchased from the Institute of Basic Medical Science, Chinese Academy of Medical Science (Beijing, China). Cells were maintained in RPMI-1640 with 10% fetal bovine serum (FBS) and 1% Penicillin-Streptomycin Solution (PS) and cultured at 37 °C in a humidified atmosphere containing 5% CO2. Compounds to be evaluated were dissolved in DMSO (dimethyl sulfoxide), diluted in RPMI-1640, and stored at −20 °C before use. Cells were seeded in 96-well plates at a density of 5000 cells/well (200 μL) and incubated overnight. Culture medium was replaced with fresh RPMI (Roswell Park Memorial Institute)-1640 containing compounds in different concentrations (100 μM–50 μM–25 μM–12.5 μM–6.25 μM–3.125 μM). Then, cells were incubated in a 5% CO2 incubator for 48 h. The 20 μL MTT solution (5 mg/mL) was added to each well and incubated at 37 °C. After 4 h, the medium was removed and formazan crystals were dissolved in 100 μL DMSO. Absorbance was measured at a wavelength of 490 nm using Synergy H1 (BioTek Instruments, Inc., Winooski, VT, USA). IC50 values were calculated by GraphPad Prism 5 (GraphPad Software, Inc., San Diego, CA, USA).

MCF-7 cells = assay: MTT anti-proliferative assay on MCF-7 cells; type: cell-based, human
Method: as §1

human Hsp90α = target: T1, human Hsp90α (Homo sapiens, UniProt P07900); assay: Fluorescence polarization (FP) competitive binding assay, Hsp90α N-Terminal Domain Assay Kit; settings: FITC-labeled geldanamycin competition, mean ± SD, three experiments
T1 construct: FP assay using Hsp90α N-Terminal Domain Assay Kit (BPS Bioscience, Catalog #50293, CA, USA); purchased BPS Bioscience 50293
Method: In brief, the Hsp90 assay buffer (15 μL), 40 mM dithiothreitol (DTT) (5 μL), 2 mg/mL BSA (5 μL), and H2O (40 μL) were added to the plate. To each well, 100 nM fluorescein isothiocyanate (FITC)-labeled geldanamycin (5 μL) and diluted compounds in different concentrations (0.5, 5, 50, 500 μM, 10 μL) were added in an orderly manner. The reactions were initiated by adding 20 μL of Hsp90α (17 ng/μL). […] The data were analyzed using GraphPad Prism 5 (GraphPad Software, Inc.).

Hsp70 = assay: Western blotting, Hsp70 expression in MCF-7 cells; type: cell-based, human; settings: 24 h; for expression of Hsp70: MCF-7 cells, compound at IC50 concentration
Method: (§2) Primary antibodies against Hsp70, Hsp90, Her2, and GAPDH were bought from Abcam (Cambridge, MA, USA). HRP (horseradish peroxidase) labeled anti-rabbit immunoglobulin G (H + L) secondary antibody was purchased from Abbkine (Redlands, CA, USA). MCF-7 cells were cultured as described above to a density of 10^6 cells per dish. […] Cells were washed with cold phosphate buffered saline (PBS, pH = 7.4) three times and lysed in radio immunoprecipitation assay (RIPA) lysate (containing 1% phenylmethanesulfonyl fluoride (PMSF)) on ice for 45 min. The lysates were collected and clarified at 12,000× g for 20 min at 4 °C using high speed refrigerated centrifuge. Protein concentration was determined by the bicinchoninic acid (BCA) protein assay kit. The protein sample (20 µg) was electrophoresed using 8% SDS-PAGE (sodium dodecyl sulfate- polyacrylamide gel electrophoresis), transferred to poly(vinylidene fluoride) (PVDF) membranes, and then blocked for 1 h in 5% skim milk in TBST (20 mM Tris-HCl pH 7.4, 100 mM NaCl, and 0.1% Tween 20). The membranes were immunoblotted with primary antibodies for 2 h at room temperature. After incubation with an HRP anti-rabbit IgG (H + L) (1:100,000) as a secondary antibody, the bands were detected using the ECL^TM Prime Western Blotting Detection System (ProteinSimple, San Jose, CA, USA). The density of proteins was determined using the AlphaView SA (Alpha Innotech Corp., version 3.4.0.0, San Leandro, CA, USA).

Her2 = assay: Western blotting, Her2 expression in MCF-7 cells; type: cell-based, human; settings: 24 h
Method: as §2

Hsp90 = assay: Western blotting, Hsp90 expression in MCF-7 cells; type: cell-based, human; settings: 24 h; for expression of Hsp90: MCF-7 cells, compound at IC50 concentration
Method: as §2

[1] = Homo sapiens, A549, 48-h post treatment
[2] = Homo sapiens, MCF7, MTT, 48-h post treatment, mean ± SD, three experiments, read-out: IC50 MCF-7
[3] = Homo sapiens, MCF7, Figure 3, mean ± SD, n = 3, read-out: anti-proliferative activity against MCF-7 cells (IC50), top 21 molecules from virtual screening
[4] = MCF-7 cells, 0, 5, 10, 20 and 40 µM
[5] = MCF-7 cells, compound at IC50 concentration

CCN1CCN(CC)C1c1ccnc(Cl)c1 [Compound 7a]
IC50 (A549 cells; [1]): 250.1 ± 1.27 µM | IC50 (MCF-7 cells; [2]): > 500 µM

c1ccc(CN2CCN(Cc3ccccc3)C2c2cncnc2)cc1 [Compound 4r]
IC50 (A549 cells; [1]): 80.8 ± 1 µM | IC50 (MCF-7 cells; [2]): 51.4 ± 0.54 µM

NC(=O)c1nnn(Cc2ccccc2)c1NC(=O)CSc1nnc(-c2ccco2)o1 [Compound 1d]
IC50 (MCF-7 cells; [3]): 243.3 ± 0.99 µM

O=C(Cn1c(-c2ccccn2)nc2ccccc21)NCCc1ccccc1 [Compound 2a]
IC50 (MCF-7 cells; [3]): 190.6 ± 1.41 µM

Clc1ccc(C2N(Cc3ccccc3)CCN2Cc2ccccc2)s1 [Compound 4d, 1,3-dibenzyl-2-(5-chlorothiophene)-imidazolidine]
IC50 (human Hsp90α): 672 ± 10 nM | IC50 (A549 cells; [1]): 56.3 ± 1.27 µM | IC50 (MCF-7 cells; [2]): 68.35 ± 0.44 µM

Clc1ncc(C2N(Cc3ccccc3)CCN2Cc2ccccc2)s1 [Compound 4j, 1,3-dibenzyl-2-(2-chloro-5-thiazolyl)-imidazolidine]
IC50 (human Hsp90α): 310 ± 14 nM | expression level of Hsp70 regulated (Hsp70; [4]): concentration-dependent manner | expression level of Her2 regulated (Her2; [4]): concentration-dependent manner | IC50 (A549 cells; [1]): 35.3 ± 0.14 µM | expression level of Hsp90 regulated (Hsp90; [4]): concentration-dependent manner | IC50 (MCF-7 cells; [2]): 33.12 ± 0.23 µM

O=[N+]([O-])c1ccccc1C1N(Cc2ccccc2)CCN1Cc1ccccc1 [Compound 4g, 1,3-dibenzyl-2-(2-nitro-phenyl)-imidazolidine]
IC50 (A549 cells; [1]): 40.6 ± 0.51 µM | IC50 (MCF-7 cells; [2]): 40.91 ± 0.05 µM

c1ccc(N2CCN(c3ccccc3)C2c2ccco2)cc1 [Compound 6a]
IC50 (A549 cells; [1]): 123.4 ± 0.85 µM | IC50 (MCF-7 cells; [2]): 40.77 ± 0.39 µM

O=C(Cn1c(-c2ccccn2)nc2ccccc21)NCCCN1CCOCC1 [Compound 2b]
IC50 (MCF-7 cells; [3]): 310.5 ± 0.71 µM

Clc1ccc(C2N(c3ccccc3)CCN2c2ccccc2)c(Cl)n1 [Compound 6d]
IC50 (A549 cells; [1]): 248.6 ± 0.57 µM | IC50 (MCF-7 cells; [2]): 323 ± 2.28 µM

CCOC(=O)c1nnn(Cc2ccccc2Cl)c1NC(=O)CN1CCC(C)CC1 [Compound 1c]
IC50 (MCF-7 cells; [3]): 134 ± 0.42 µM

Fc1ccc(Cl)cc1C1N(c2ccccc2)CCN1c1ccccc1 [Compound 6c]
IC50 (human Hsp90α): 1930 ± 13 nM | IC50 (A549 cells; [1]): 46.14 ± 0.2 µM | IC50 (MCF-7 cells; [2]): 43.7 ± 1.03 µM

c1ccc(CN2CCN(Cc3ccccc3)C2c2cccs2)cc1 [Compound 4c, 1,3-dibenzyl-2-thiophene-imidazolidine]
IC50 (A549 cells; [1]): 78.18 ± 0.15 µM | IC50 (MCF-7 cells; [2]): 80.04 ± 0.63 µM

Cc1cc(NC(=O)CCS(=O)(=O)c2nc(-c3ccc4c(c3)OCO4)cc(C(F)(F)F)n2)no1 [Compound 3b]
IC50 (MCF-7 cells; [3]): 32.4 ± 0.55 µM

O=[N+]([O-])c1ccc(C2N(Cc3ccccc3)CCN2Cc2ccccc2)s1 [Compound 4a]
IC50 (human Hsp90α): 12 ± 10 nM | expression of Hsp70 (Hsp70): significantly induced | expression level of Her2 (Her2; [5]): significantly down-regulated | expression level of Her2 down-regulated to (Her2; [5]): 48% | IC50 (A549 cells; [1]): 31.22 ± 0.31 µM | expression of Hsp90 (Hsp90): slightly increased | IC50 (MCF-7 cells; [2]): 21.6 ± 0.57 µM

COc1ccc(-c2nnc(SCC(=O)N3CCOCC3)n2Cc2ccccc2)cc1 [Compound 1b]
IC50 (MCF-7 cells; [3]): 133.6 ± 1.13 µM

O=S(=O)(c1ccccc1)c1nc(-c2ccc(Cl)cc2)oc1NCCCN1CCOCC1 [Compound 3d]
IC50 (MCF-7 cells; [3]): 70.34 ± 0.2 µM

Brc1cncc(C2N(Cc3ccccc3)CCN2Cc2ccccc2)c1 [Compound 4p]
IC50 (A549 cells; [1]): 72.87 ± 0.66 µM | IC50 (MCF-7 cells; [2]): 45.2 ± 0.63 µM

c1ccc(CN2CCN(Cc3ccccc3)C2c2cc3ccccc3s2)cc1 [Compound 4f, 1,3-dibenzyl-2-(1-benzothiophene)-imidazolidine]
IC50 (A549 cells; [1]): 136 ± 1.41 µM | IC50 (MCF-7 cells; [2]): 219.4 ± 0.57 µM

C=CCNC1=C2CC(C)CC(OC)C(O)C(C)C=C(C)C(OC(N)=O)C(OC)C=CC=C(C)C(=O)NC(=CC1=O)C2=O (stereo not shown) [Compound 17-AAG, reference compound]
IC50 (A549 cells; [1]): 3.54 ± 0.08 µM | IC50 (MCF-7 cells; [2]): 7.18 ± 0.13 µM

Clc1ncc(C2N(c3ccccc3)CCN2c2ccccc2)s1 [Compound 6b]
IC50 (A549 cells; [1]): 172 ± 1.41 µM | IC50 (MCF-7 cells; [2]): 161.6 ± 0.57 µM

Cc1ccc(C2N(Cc3ccccc3)CCN2Cc2ccccc2)s1 [Compound 4e, 1,3-dibenzyl-2-(5-Methylthiophene)-imidazolidine]
IC50 (A549 cells; [1]): 113 ± 1.41 µM | IC50 (MCF-7 cells; [2]): 119.3 ± 0.42 µM

Clc1ccc(C2N(Cc3ccccc3)CCN2Cc2ccccc2)c(Cl)n1 [Compound 4n]
IC50 (human Hsp90α): 102 ± 10 nM | IC50 (A549 cells; [1]): 52.11 ± 0.5 µM | IC50 (MCF-7 cells; [2]): 40.4 ± 0.51 µM

O=[N+]([O-])c1ccc(C2N(Cc3ccccc3)CCN2Cc2ccccc2)cc1 [Compound 4h, 1,3-dibenzyl-2-(4-nitro-phenyl)-imidazolidine]
IC50 (A549 cells; [1]): 55.6 ± 0.49 µM | IC50 (MCF-7 cells; [2]): 117.7 ± 0.01 µM

COc1ccc(C(=O)/C=C/Nc2ccc(S(=O)(=O)Nc3ccc(OC)nn3)cc2)cc1 [Compound 3a]
IC50 (MCF-7 cells; [3]): 29.2 ± 0.34 µM

Cc1ccc(O)c(C2N(Cc3ccccc3)CCN2Cc2ccccc2)c1 [Compound 4b]
IC50 (human Hsp90α): 612 ± 14 nM | expression of Hsp70 (Hsp70): significantly induced | expression level of Her2 (Her2; [5]): significantly down-regulated | IC50 (A549 cells; [1]): 88.58 ± 0.08 µM | expression of Hsp90 (Hsp90): slightly increased | IC50 (MCF-7 cells; [2]): 50.62 ± 0.26 µM

O=S(=O)(c1ccccc1)c1nc(-c2ccco2)oc1NCc1ccc(F)cc1 [Compound 3e]
IC50 (MCF-7 cells; [3]): 238 ± 0.71 µM

1,3-dibenzyl-2-(3-bromo-5-thiazolyl)-imidazolidine [Compound 4k]
IC50 (A549 cells; 48-h post treatment): 498.8 ± 0.25 µM | IC50 (MCF-7 cells; MTT, 48-h post treatment, mean ± SD, three experiments, read-out: IC50 MCF-7): 77.01 ± 0.01 µM

CN1CCN(C)C1c1cc(Cl)ccc1F [Compound 8a]
IC50 (A549 cells; [1]): 149 ± 1.56 µM | IC50 (MCF-7 cells; [2]): 250.1 ± 0.27 µM

CCN1CCN(CC)C1c1cc(Cl)ccc1F [Compound 7b]
IC50 (A549 cells; [1]): 164 ± 1.41 µM | IC50 (MCF-7 cells; [2]): 158.9 ± 0.14 µM

Fc1ccc(Cl)cc1C1N(Cc2ccccc2)CCN1Cc1ccccc1 [Compound 4i, 1,3-dibenzyl-2-(5-chloro-2-fluoro-phenyl)-imidazolidine]
IC50 (human Hsp90α): 610 ± 14 nM | IC50 (A549 cells; [1]): 59.3 ± 0.83 µM | IC50 (MCF-7 cells; [2]): 27.86 ± 0.01 µM

— article PMC6600241, “Identification and Structure-Activity Studies of 1,3-Dibenzyl-2-aryl imidazolidines as Novel Hsp90 Inhibitors” (Molecules, 2019)
